The text below walks through data of patent US7425577B2, “Lipase-colipase inhibitor” (Forskarpatent 1 SYD AB, priority 2003, dated 2008).

A short description of test [1]: Acute effect on blood lipids: single dose plus Intralipid in overnight-fasted rats. The settings on record: single dose 200 μl plus 1 ml Intralipid (200 mg); 0, 30, 60, 120 and 180 min. Format: in vivo, female Sprague-Dawley rats. The protocol:
(§1) Blood was drawn in rats from the intra-orbital bullar plexus under anaesthesia and collected in ice-cold tubes. Serum was obtained by centrifugation at 3000 g for 15 min at 4° C. For acute effect of dimethylaminoethyl dodecyl ether on blood lipids, overnight-fasted rats were given 200 μl dimethylaminoethyl dodecyl ether plus 1 ml (200 mg) Intralipids orally through a gastric gavage and blood collected at 0, 30, 60, 120 and 180 min. Plasma triglycerides was determined with an Sigma diagnostics kit. Plasma fatty acids were measured by NEFAC kit (Wako chemicals GmbH, Neuss, Germany). Plasma PYY (3-36) and leptin were measured with the PYY Enzyme Immunossay kit and leptin Enzyme Immunossay (Phoenix Pharmaceuticals, USA)

Test [2] relates to Pancreatic lipase. The test can be described thus: Pancreatic lipase activity and protein expression in pancreas after 5 days of treatment. The settings on record: pancreas of rats given 50 μl for 5 days by gastric gavage. Format: in vivo, rat. The protocol:
At the end of experiment, rats were killed and the pancreas collected for assay of lipase activity and protein expression. Lipase activity was determined with pH stat titration (Mettle Components DK 10, DK 11, DV11) using tributyrin dispersed in bile salt as substrate (Borgström & Erlanson). Lipase expression was analysed by western blot.
Pancreas was homogenized in 0.5% digitonin buffer containing 10 mM sodium phosphate (pH6.0) and 1 mini complete tablet on ice. After centrifuge at 14000 g, 4° C. for 10 min, the supernatant was collected and heating at 65° C., 15 min for inactivate endogenous lipase. The protein amount was measured by BCA method. Equal amount (50 μg) protein was load on 10% SDS-polyacrylamide gels, transferred to the nitrocellulose membranes and then incubated with anti-lipase antibody in the dilution 1:1000 at 4° C. overnight. Pancreatic lipase protein was detected using a horseradish peroxidase-conjugated donkey anti-rabbit antibody (1:8000) for 60 min at room temperature followed with an enhanced chemiluminescence (Pierce).

Test [3] can be described thus: Serum PYY 3-36, leptin and ghrelin after 5 days of oral administration. Format: in vivo, female Sprague-Dawley rats. The protocol: as §1
Stat View program was used for statistics analysis. The data were analyzed using two-way ANOVA followed by post hoc tests for comparison of individual differences. Student's t-test was used for the analysis of triglycerides, PYY3-36, leptin and ghrelin data.

The target in test [4] is T1, lipase (Homo sapiens, UniProt P04118+P16233).
T1 sequence (P16233 17-465): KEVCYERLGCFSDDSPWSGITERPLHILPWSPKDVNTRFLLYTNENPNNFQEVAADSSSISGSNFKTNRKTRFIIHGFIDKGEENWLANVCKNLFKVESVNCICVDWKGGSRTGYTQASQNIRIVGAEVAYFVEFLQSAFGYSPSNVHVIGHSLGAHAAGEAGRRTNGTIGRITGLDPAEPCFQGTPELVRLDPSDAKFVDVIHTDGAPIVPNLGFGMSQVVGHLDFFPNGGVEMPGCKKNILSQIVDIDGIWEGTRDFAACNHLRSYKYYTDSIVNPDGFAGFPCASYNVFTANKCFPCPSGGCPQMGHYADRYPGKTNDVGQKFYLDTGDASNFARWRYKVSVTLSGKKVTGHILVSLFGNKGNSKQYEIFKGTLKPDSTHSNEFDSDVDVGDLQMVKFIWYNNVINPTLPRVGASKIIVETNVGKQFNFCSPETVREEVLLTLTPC
T1 sequence (P04118 23-112): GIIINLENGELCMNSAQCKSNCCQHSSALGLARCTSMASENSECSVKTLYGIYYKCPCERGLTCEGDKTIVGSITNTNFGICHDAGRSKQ
The test can be described thus: Inhibition of lipase activity in vitro assay, tributyrin or Intralipid as substrates (FIGS. 1A and 1B). Format: biochemical. The settings on record: for Inhibition of lipase activity in vitro: tributyrin or intralipid as substrates.

Entries after “also recorded” stand apart in the source; their conditions may differ.

As to `CCCCCCCCCCCCOCCN(C)C` [dimethylaminoethyl dodecyl ether], in test [1], the “Serum (plasma) fatty acids vs Intralipid alone” value is “significantly reduced; also recorded: decreased” and the “Serum (plasma) triglycerides vs Intralipid alone” value was “significantly reduced”. For the same compound, in test [2], the “Pancreatic lipase activity vs controls” value is “not changed” and the “Pancreatic lipase protein expression vs controls (western blot)” value is given as “slightly reduced; also recorded: reduced”. Besides, in test [3] (fasted rats, 50 μl for 5 days), the “Serum PYY 3-36 level vs controls” value was “no difference”, the “Serum ghrelin level vs controls” value is recorded as “markedly increased” and the “Serum leptin level vs controls” value is reported as “markedly decreased; also recorded: significantly decreased”. Moreover, in test [3] (treated rats, 5 days, control rats 0.86±0.24), the “Serum PYY3-36 level” value is 0.85 ± 0.26 ng/mL. Also, in test [4] (Intralipid as substrate), the “Dose at which the maximum inhibition of lipase activity was seen” value is 80 µmol. In addition, the “Dose at which the maximum inhibition of lipase activity was seen” value in test [4] (tributyrin as substrate) was 40 µmol. In test [4], the “Inhibition of lipase activity in vitro” value was “completely inhibited lipase activity”. The “Inhibition of lipase activity in vitro” value in test [4] (listed as Dimethylaminoethyl dodecyl ether) is listed as “inhibited lipase activity in a dose-depended manner”.
